According to ChEMBL document CHEMBL1136093, “A four component coupling strategy for the synthesis of D-phenylglycinamide-derived non-covalent factor Xa inhibitors” (Bioorg Med Chem Lett, 2003):

Molecular target: Coagulation factor X (Homo sapiens) (UniProt P00742)
Experiment: Binding ability to coagulation factor Xa, expressed as apparent association constant

Chain of Coagulation factor X (Homo sapiens) (P00742 41-179 limits assumed): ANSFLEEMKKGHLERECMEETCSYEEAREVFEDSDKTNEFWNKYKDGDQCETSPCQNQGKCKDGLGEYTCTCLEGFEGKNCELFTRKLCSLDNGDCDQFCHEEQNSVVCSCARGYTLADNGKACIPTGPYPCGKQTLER
Chain of Coagulation factor X (Homo sapiens) (P00742 235-488 limits assumed): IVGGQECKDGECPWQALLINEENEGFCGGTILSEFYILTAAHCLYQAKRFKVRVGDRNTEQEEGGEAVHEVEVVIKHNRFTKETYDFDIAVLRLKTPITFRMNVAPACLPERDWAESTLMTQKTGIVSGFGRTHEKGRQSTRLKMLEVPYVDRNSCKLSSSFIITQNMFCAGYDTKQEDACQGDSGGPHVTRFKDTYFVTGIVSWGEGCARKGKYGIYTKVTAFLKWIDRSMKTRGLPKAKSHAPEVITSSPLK

SMILES | K ass
COc1ccc(C(=O)NC(C(=O)NCC2CCN(C(C)C)CC2)c2ccco2)cc1 (stereo not drawn) | 360000 l M-1
O=C(NC(C(=O)NCC1CCN(C2CCCC2)CC1)c1cccc2ccccc12)c1ccc2c(Cl)c[nH]c2c1 (stereo not drawn) | 2.5e+08 l M-1
COc1ccc(C(=O)NC(C(=O)NCC2CCN(C(C)C)CC2)c2ncc[nH]2)cc1 (stereo not drawn) | 210000 l M-1
O=C(NC(C(=O)NCC1CCN(C2CCCC2)CC1)c1cnc2ccccc2c1)c1ccc2c(Cl)c[nH]c2c1 (stereo not drawn) | 200000 l M-1
COc1ccc(C(=O)NC(C(=O)NCC2CCN(C(C)C)CC2)c2ccccc2Oc2ccccc2)cc1 (stereo not drawn) | 1.3e+06 l M-1
COc1ccc(C(=O)NC(C(=O)NCC2CCN(C(C)C)CC2)c2ccccc2SC(C)(C)C)cc1 (stereo not drawn) | 1.7e+06 l M-1
COc1ccc(C(=O)NC(C(=O)NCC2CCN(C(C)C)CC2)c2ccsc2)cc1 (stereo not drawn) | 880000 l M-1
O=C(NC(C(=O)NCC1CCN(C2CCCC2)CC1)c1nccs1)c1ccc2c(Cl)c[nH]c2c1 (stereo not drawn) | 3.8e+08 l M-1
COc1ccc(C(=O)NC(C(=O)NCC2CCN(C(C)C)CC2)c2ccnc3ccccc23)cc1 (stereo not drawn) | 1.3e+06 l M-1
COc1ccc(C(=O)NC(C(=O)NCC2CCN(C(C)C)CC2)c2ccccc2[N+](=O)[O-])cc1 (stereo not drawn) | 4.2e+06 l M-1
COc1ccc(C(=O)NC(C(=O)NCC2CCN(C(C)C)CC2)c2cccs2)cc1 (stereo not drawn) | 1.1e+06 l M-1
COc1ccc(C(=O)NC(C(=O)NCC2CCN(C(C)C)CC2)c2ccoc2)cc1 (stereo not drawn) | 200000 l M-1
COc1ccc(C(=O)NC(C(=O)NCC2CCN(C(C)C)CC2)c2cnc3ccccc3c2)cc1 (stereo not drawn) | 50000 l M-1
COc1ccc(C(=O)NC(C(=O)NCC2CCN(C(C)C)CC2)c2ccccc2OCc2ccccc2)cc1 (stereo not drawn) | 2.6e+06 l M-1
COc1ccc(C(=O)NC(C(=O)NCC2CCN(C(C)C)CC2)c2ccccc2N(C)C)cc1 (stereo not drawn) | 1.1e+06 l M-1
CCOc1ccccc1C(NC(=O)c1ccc(OC)cc1)C(=O)NCC1CCN(C(C)C)CC1 (stereo not drawn) | 2.8e+06 l M-1
COc1ccc(C(=O)NC(C(=O)NCC2CCN(C(C)C)CC2)c2ccccc2)cc1 (stereo not drawn) | 710000 l M-1
COc1ccc(C(=O)NC(C(=O)NCC2CCN(C(C)C)CC2)c2ccccc2OC(F)(F)F)cc1 (stereo not drawn) | 4.1e+06 l M-1
O=C(NC(C(=O)NCC1CCN(C2CCCC2)CC1)c1ccc2ccccc2c1)c1ccc2c(Cl)c[nH]c2c1 (stereo not drawn) | 7.9e+07 l M-1
O=C(N[C@@H](C(=O)NCC1CCN(C2CCCC2)CC1)c1ccccc1)c1ccc2c(Cl)c[nH]c2c1 | 8.2e+08 l M-1

Further lines, results first:

K ass | SMILES
2.9e+06 l M-1 | COc1ccc(C(=O)NC(C(=O)NCC2CCN(C(C)C)CC2)c2ccccc2SC)cc1 (stereo not drawn)
2e+06 l M-1 | COc1ccc(C(=O)NC(C(=O)NCC2CCN(C(C)C)CC2)c2ccccc2F)cc1 (stereo not drawn)
1.3e+06 l M-1 | COc1ccc(C(=O)NC(C(=O)NCC2CCN(C(C)C)CC2)c2ccccc2O)cc1 (stereo not drawn)
4.6e+06 l M-1 | COc1ccc(C(=O)NC(C(=O)NCC2CCN(C(C)C)CC2)c2ccccc2Br)cc1 (stereo not drawn)
4.1e+06 l M-1 | COc1ccc(C(=O)NC(C(=O)NCC2CCN(C(C)C)CC2)c2ccccc2I)cc1 (stereo not drawn)
750000 l M-1 | COc1ccc(C(=O)NC(C(=O)NCC2CCN(C(C)C)CC2)c2ccccc2N)cc1 (stereo not drawn)
5.1e+06 l M-1 | COc1ccc(C(=O)NC(C(=O)NCC2CCN(C(C)C)CC2)c2ccccc2Cl)cc1 (stereo not drawn)
2.5e+06 l M-1 | COc1ccc(C(=O)NC(C(=O)NCC2CCN(C(C)C)CC2)c2ccccc2C)cc1 (stereo not drawn)
1.9e+06 l M-1 | COc1ccc(C(=O)NC(C(=O)NCC2CCN(C(C)C)CC2)c2ccccc2OC)cc1 (stereo not drawn)
3.1e+06 l M-1 | COc1ccc(C(=O)NC(C(=O)NCC2CCN(C(C)C)CC2)c2ccccc2C(F)(F)F)cc1 (stereo not drawn)

Species: Homo sapiens
Experiment: Concentration required to double the time of clot formation in reconstituted human plasma, using prothrombin time assay
Format: functional, organism-based

SMILES | Concentration
O=C(NC(C(=O)NCC1CCN(C2CCCC2)CC1)c1cccc2ccccc12)c1ccc2c(Cl)c[nH]c2c1 (stereo not drawn) | 3.8 µM
O=C(NC(C(=O)NCC1CCN(C2CCCC2)CC1)c1nccs1)c1ccc2c(Cl)c[nH]c2c1 (stereo not drawn) | 0.79 µM
O=C(NC(C(=O)NCC1CCN(C2CCCC2)CC1)c1ccc2ccccc2c1)c1ccc2c(Cl)c[nH]c2c1 (stereo not drawn) | 4.1 µM
